# Reference: patent publication US20210403864A1, “METHODS AND COMPOSITIONS FOR TREATING ACTIVATED G-ALPHA Q MUTANT CANCERS OR MELANOCYTIC MALIGNANCIES” (Memorial Sloan Kettering Cancer Center, priority 2018, published 2021)
# pIC50: −log10 of the molar value.
# Tests used:
# [1] = tested on: RASGRP3, CRAF, MEK, ERK phosphorylation and cyclin D1 expression; test: Western blot of Gαq downstream signaling in melan-a cells; assay type: cell-based, mouse
# Procedure: The last sample for each cell line was also treated with TPA for 24 hours showing rescue of the pathway.
# Samples were treated with 500 nM YM for 0, 2, 4, 8, and 24 hours with the last lane being treatment plus TPA add back.
# Immunoblotting. Lysates were harvested using SDS lysis buffer (50 mM Tris-HCL, pH 6.8, 1 mM EDTA, 150 mM NaCl, 1% SDS, […]) supplemented with fresh proteinase and phosphatase inhibitors (PhosSTOP, Roche, Basel, Switzerland; Complete EDTA-Free, Roche, Basel, Switzerland) and 1% PMSF (Sigma-Aldrich, St. Louis, Mo.). Lysates were incubated on ice for 30 minutes, sonicated for 15 minutes, and then centrifuged at max speed for 10 minutes at 4° C. Protein levels were quantified using BCA protein assay (Thermo Scientific, Waltham, Mass.). NuPAGE LDS Sample Buffer (4×) was added to a final concentration of 1×. Samples were run on NuPAGE Novex 4-12% Bis-Tris protein gels (Life Technologies, Carlsbad, Calif.), transferred electrophoretically to 0.45 μm PVDF membranes (Immobilon, EMD Millipore, Burlington, Mass.), and then blocked with StartingBlock blocking buffer (Thermo Scientific, Waltham, Mass.) for 1 hour at room temperature. Primary antibodies were incubated at 4° C. overnight in StartingBlock buffer at 1:1,000 dilution, unless noted otherwise. Primary Antibodies used in the experiments described herein are provided below:
# The effect of YM on Gαq downstream signaling was assayed, including RASGRP3 phosphorylation by PKC, phosphorylation of CRAF, MEK, and ERK (downstream of RAS) and cyclin D1 expression which integrates signaling to promote cell cycle progression.
# [2] = tested on: BRAF-mutant A375 cutaneous melanoma cells; test: Colony formation assay; assay type: cell-based, human; details: 1000 cells per well, until colonies visible in vehicle plates
# Procedure: (§1) To evaluate the effect of YM-254890 and trametinib in vitro, colony formation assays were performed. 1000 cells per well of the following cell lines were plated: (1) BRAF-mutant A375 cutaneous melanoma cells, (2) Gq-mutant Mel202 cells, and (3) Gq-mutant OMIM1.3 uveal melanoma cells. The cells were then treated with a negative vehicle control, YM-254890, trametinib, or both. Cells were allowed to grow until visible colonies formed in the vehicle-treated plates.
# [3] = tested on: Gq-mutant Mel202 cells; test: Colony formation assay; assay type: cell-based, human; details: 1000 cells per well, until colonies visible in vehicle plates
# Procedure: as §1
# [4] = tested on: Gq-mutant OMIM1.3 uveal melanoma cells; test: Colony formation assay; assay type: cell-based, human; details: 1000 cells per well, until colonies visible in vehicle plates
# Procedure: as §1
# [5] = tested on: A375 cells (BRAF^V600E cutaneous melanoma); test: Cell proliferation dose response, CellTiter-glo 2.0; assay type: cell-based, human; details: 5 days
# Procedure: (§2) Data are expressed as the percentage RLU relative to that observed with vehicle. Error bars, s.e.m. from triplicate samples.
# (§3) Cell Culture and in vitro analysis. Mutation dependent melan-a cells were generated by transducing cells with cDNAs in MSCV-PURO (retrovirus) and then selecting cells with puromycin (1 μg/ml) for two days. TPA (Sigma-Aldrich, St. Louis, Mo.) was then withdrawn from cultures. Cells with activating mutations (CYSLTR2^L129Q, GNAQ^G48V/R183Q/Q209L, KRAS^G12V, and BRAF^V600E) continued to proliferate over several passages (>2 weeks) and were then validated with qRT-PCR and immunoblots. Vector and WT controls were unable to maintain proliferation after a couple passages upon TPA withdrawal. All cells were cultured in media containing 10% FBS, L-glutamine ([…]), penicillin (100 U/ml), streptomycin (100 μg/ml). Melan-a cells provided by D. Bennett, St. George's Hospital, University of London (Johnson C P, et al., PLoS One. 12(6):1-17 (2017)), were cultured in RPMI supplemented with 200 nM TPA unless otherwise noted. HEK293T (from ATCC, Manassas, Va.) cells were cultured in DMEM-Q and UVM cells were cultured in RPMI. All cells tested negative for mycoplasma. Cell growth assays and YM dose response curves were assayed using CellTiter-glo 2.0 (Promega, Madison, Wis.) at given time points or after five days of incubation with YM and readout on a Glomax Luminometer (Promega, Madison, Wis.). IC50 values were calculated using Prism 7.0 software. Growth assays were compared to day 1 readings and dose response curves were compared to vehicle. Data shown is representative of at least three independent experiments with at least three technical replicates. Dose-response curves and growth assays were analyzed using GraphPad Prism 7.0 software.
# [6] = tested on: OMM1.3 cells; test: as above; assay type: cell-based, human; details: 5 days, approximate
# Procedure: as §2, §3
# [7] = tested on: Mel285 cells; test: as above; assay type: cell-based, human; details: 5 days, UVM line lacking GNAQ/11 mutations
# Procedure: as §2, §3
# [8] = tested on: A549 cells (KRAS^G12S); test: as above; assay type: cell-based, human; details: 5 days
# Procedure: as §2, §3
# [9] = tested on: Mel202 cells; test: as above; assay type: cell-based, human; details: 5 days, approximate
# Procedure: as §2, §3
# [10] = tested on: Mel290 cells; test: as above; assay type: cell-based, human; details: 5 days, UVM line lacking GNAQ/11 mutations
# Procedure: as §2, §3
# [11] = tested on: SK-MEL-2 cells (NRAS^Q61R); test: as above; assay type: cell-based, human; details: 5 days
# Procedure: as §2, §3
# [12] = tested on: Mel270 cells; test: as above; assay type: cell-based, human; details: 5 days, approximate
# Procedure: as §2, §3
# [13] = tested on: CYSLTR2^L129Q-expressing melan-a cells; test: TPA-independent cell growth, CellTiter-glo 2.0; assay type: cell-based, mouse; details: 5 days
# Procedure: (§4) Data are expressed as the percentage relative light units (RLU) relative to that observed with vehicle. Error bars, s.e.m. from triplicate samples.
# as §2, §3
# [14] = tested on: GNAQ^Q209L-expressing melan-a cells; test: TPA-independent cell growth, CellTiter-glo 2.0; assay type: cell-based, mouse; details: 5 days
# Procedure: as §4, §2, §3
substance,measurement,setting,value
YM-254890,downstream signaling targets with TPA supplementation,"[1]; 24 hours after YM treatment, plus TPA",completely rescued
same,inhibition of MAPK signaling,"[1]; BRAF^V600E-expressing melan-a cells, 500 nM YM",ineffective
same,"inhibition of downstream signaling targets (p-RASGRP3, p-CRAF, p-MEK, p-ERK, cyclin D1)","[1]; CYSLTR2^L129Q, GNAQ^G48V, GNAQ^R183Q and GNAQ^Q209L-expressing melan-a cells, 500 nM YM, 0-24 hours",inhibited
same,kinetics of inhibition of downstream signaling compared to CYSLTR2^L129Q and GNAQ^G48V-expressing cells,"[1]; GNAQ^Q209L-expressing melan-a cells, 500 nM YM",slower kinetics
same,kinetics of inhibition of downstream signaling compared to CYSLTR2^L129Q and GNAQ^G48V-expressing cells,"[1]; GNAQ^R183Q-expressing melan-a cells, 500 nM YM",slower kinetics
same,inhibition of MAPK signaling,"[1]; KRAS^G12V-expressing melan-a cells, 500 nM YM",ineffective
same,colony formation,[2],resistant
same,colony formation,[3],moderate sensitivity
same,colony formation,[4],moderate sensitivity
same,sensitivity of proliferation to YM,[5],resistant
same,pIC50,[6],~7.00
same,sensitivity of proliferation to YM,[7],resistant
same,sensitivity of proliferation to YM,[8],resistant
same,pIC50,[9],~7.00
same,sensitivity of proliferation to YM,[10],resistant
same,sensitivity of proliferation to YM,[11],resistant
same,pIC50,[12],~7.00
same,YM-mediated growth inhibition in the presence of TPA,[13]; with TPA,rescued
same,sensitivity of TPA-independent cell growth to YM,[13]; without TPA,sub-nanomolar sensitivity
same,YM-mediated growth inhibition in the presence of TPA,[14]; with TPA,rescued
same,sensitivity of TPA-independent cell growth to YM,[14]; without TPA,modestly less sensitive
